Each structure is given as a SMILES string. pIC50: −log10 of the molar value.

This test deals with T1, recombinant human 15-PGDH (Homo sapiens, UniProt P15428).
T1 construct: purchased R&D Systems
T1 sequence (P15428 1-266): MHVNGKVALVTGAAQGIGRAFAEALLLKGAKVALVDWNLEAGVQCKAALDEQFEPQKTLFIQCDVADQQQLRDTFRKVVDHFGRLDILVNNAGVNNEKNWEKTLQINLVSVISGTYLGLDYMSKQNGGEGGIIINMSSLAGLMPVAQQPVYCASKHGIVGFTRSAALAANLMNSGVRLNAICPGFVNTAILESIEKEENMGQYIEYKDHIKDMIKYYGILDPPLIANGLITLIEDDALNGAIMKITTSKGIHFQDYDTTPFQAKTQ
Nature of the test: 15-PGDH enzyme inhibition test. The class given is biochemical. The conditions noted are these: 4 nM recombinant human 15-PGDH, 30 μM PGE2, 1 mM NAD+, 60 minutes after starting the reaction; read-out: IC50 Value. The gist of the method: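 Fluorescence (excitation 340 nm, emission 440 nm) measured 60 min after adding 1 mM NAD+ and 30 μM PGE2 to 4 nM recombinant human 15-PGDH, which had stood 12 min at room temperature with compound in pH 8.0 Tris-HCl buffer. Concentration-response curves yield IC50, binned into potency categories.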
For `CC(C)(C)OC(=O)c1ccc(N2CCOc3cc(C(=O)N4CCC[C@@H](F)C4)cnc32)cc1` [Example 8-7], the pIC50 was 7.00 to 8.00. The same measure for `CCn1nc2cc(N3CCCc4cc(C(=O)N5CCC[C@H](C)C5)cnc43)ccn2c1=O` [Example 8-160]: greater than 8.00. As for `Cn1nnc(-c2ccc(N3CCCc4cc(C(=O)N5CCCCC5)cnc43)cc2)n1` [Example 1-201], the figure is greater than 8.00; as for `Cn1nc2cc(N3CCCc4cc(C(=O)N5CCOCC5)cnc43)ccn2c1=O` [Example 8-126], 7.00 to 8.00. As for `CN(C)CCn1nc2cc(N3CCOc4cc(C(=O)N5CCCCC5)cnc43)ccn2c1=O` [Example 1-33], the figure is greater than 8.00.

On to `O=C(c1ccc2c(c1)OCCN2c1ccc2c(=O)[nH]cnc2c1)N1CCC(F)(F)CC1` [Example 1-152], for which the pIC50 was greater than 8.00.

As for `Cn1nc2cc(N3CCOc4cc(C(=O)N5C[C@H]6CCC[C@H]6C5)cnc43)ccn2c1=O` [Example 8-98], the negative-log IC50 (pIC50) is greater than 8.00. As for `Cn1nc2cc(N3CCOc4cc(C(=O)N5C=CCCC5)cnc43)ccn2c1=O` [Example 37-1, 2-Methyl-7-(7-(1,2,3,4-tetrahydropyridine-1-carbonyl)-2,3-dihydro-4H-pyrido[3,2-b][1,4]oxazin-4-yl)-[1,2,4]triazolo[4,3-a]pyridin-3(2H)-one], the figure is greater than 8.00; as for `COC(=O)c1ccc(N2CCCc3cc(C(=O)N4CCCCC4)cnc32)cc1` [Example 1-205], greater than 8.00; as for `CCN1Cc2cc(N3CCCc4cc(C(=O)N5CCCC(C)(F)C5)cnc43)ccc2C1=O` (centres unmarked) [Example 8-81], greater than 8.00. As for `O=C(c1cnc2c(c1)CCCN2c1ccccc1)N1CCCCC1` [Example 1-199], the figure is 7.00 to 8.00; as for `O=C(c1cnc2c(c1)CCCN2c1ccn2c(=O)n(CC3COC3)nc2c1)N1CCCCC1` [Example 1-58], greater than 8.00.

Consider `O=C(c1cnc2c(c1)OCCN2c1ccn2c(=O)n(C3CC3)nc2c1)N1CCCCC1` [Example 26-2], for which the pIC50 was greater than 8.00. As for `Cn1nc2cc(N3CCOc4nc(C(=O)N5CCCCC5)ccc43)ccn2c1=O` [Example 8-53], the figure is greater than 8.00. As for `Cn1nc2cc(N3CCOc4cc(C(=O)C5CCCCC5)cnc43)ccn2c1=O` [Example 1-111], the figure is greater than 8.00; as for `O=C(O)c1cccc(N2CCOc3cc(C(=O)N4CCCCC4)ccc32)c1` [Example 2-31], greater than 8.00; as for `O=C(c1cnc2c(c1)CCCN2c1cc2c(cn1)C(=O)N(CC1COC1)C2)N1CCCCC1` [Example 1-168], 7.00 to 8.00. As for `CCN1Cc2cc(N3CCCc4cc(C(=O)N5CCc6ccccc6C5)cnc43)ccc2C1=O` [Example 8-76], the figure is greater than 8.00; as for `O=C(NC1COC1)c1ccc(N2CCCc3cc(C(=O)N4CCCCC4)cnc32)cc1F` [Example 1-62], greater than 8.00; as for `O=C(O)c1ccc(N2CCOc3cc(C(=O)N4CC=CCC4)cnc32)cc1` [Example 4-9], greater than 8.00. For the molecule `O=C(O)CCc1ccc(N2CCOc3cc(C(=O)N4CCCCC4)ccc32)cc1` [Example 2-33], the negative-log IC50 (pIC50) is greater than 8.00.

As for `O=C(c1cnc2c(c1)CCCN2c1ccn2c(=O)[nH]nc2c1)N1CCC[C@@H](CF)C1` [Example 1-146], the negative logarithm of the IC50 (pIC50) was greater than 8.00. As for `COC(=O)c1ccccc1N1CCc2cc(C(=O)N3CCCCC3)ccc21` [Example 1-138], the figure is less than 7.00; as for `CCN1Cc2cc(N3CCCc4cc(C(=O)N5CCC[C@@H](C(F)F)C5)cnc43)ccc2C1=O` [Example 8-93], greater than 8.00. As for `CCN(C)C(=O)c1cnc2c(c1)OCCN2c1ccn2c(=O)n(C)nc2c1` [Example 8-55], the figure is greater than 8.00; as for `Cn1nc2cc(N3CCOc4cc(C(=O)N5CCCC6(C5)CC(F)(F)C6)cnc43)ccn2c1=O` [Example 8-95], 7.00 to 8.00. The same measure for `O=C(c1cnc2c(c1)OCCN2c1ccc2c(=O)[nH]oc2c1)N1CCCCC1` [Example 14-1]: greater than 8.00. In the case of `COc1ccc(N2CCCc3cc(C(=O)N4CCCCC4)cnc32)cc1` [Example 1-200], the negative logarithm of the IC50 (pIC50) was 7.00 to 8.00. As for `COCn1nc2cc(N3CCCc4cc(C(=O)N5CCC[C@@H](C(F)F)C5)cnc43)ccn2c1=O` [Example 8-119], the figure is greater than 8.00; as for `Cn1nc2cc(N3CCOc4cc(C(=O)N5CCCCC5(C)C)cnc43)ccn2c1=O` [Example 8-172], less than 7.00; as for `CN1Cc2cc(N3CCOc4cc(C(=O)N5CCCCCCC5)cnc43)ccc2C1=O` [Example 8-187], greater than 8.00. The same measure for `Cn1nc2cc(N3CCOc4cc(C(=O)N5CCCCC5)cnc43)c(Cl)cn2c1=O` [Example 1-270]: less than 7.00; for `COC(=O)c1cn(C)c2cc(N3CCOc4cc(C(=O)N5CCCCC5)cnc43)ccc12` [Example 1-90]: 7.00 to 8.00; for `CC(C)(NS(C)(=O)=O)c1ccc(N2CCOc3cc(C(=O)N4CCCCC4)cnc32)cc1` [Example 31-2]: less than 7.00. Consider `CN1C(=O)C(C)(C)c2ccc(N3CCOc4cc(C(=O)N5CCCCC5)cnc43)cc21` [Example 1-248], for which the pIC50 was less than 7.00. Regarding `CCN1Cc2cc(N3CCOc4cc(C(=O)N5CCC(F)(F)CC5)cnc43)ccc2C1=O` [Example 8-212], the pIC50 is greater than 8.00. The same measure for `O=C(O)C1CCC(N2CCOc3cc(C(=O)N4CCCCC4)ccc32)CC1` (centres unmarked) [Example 4-13]: 7.00 to 8.00. `CN1Cc2cc(N3CCOc4cc(C(=O)N5CCC[C@H](C(F)(F)F)C5)cnc43)ccc2C1=O` [Example 8-208]: the pIC50 is greater than 8.00.

Consider `Cn1nc2cc(N3CCOc4cc(C(=O)N5CCCC(C(F)(F)F)C5)cnc43)ccn2c1=O` (centres unmarked) [Example 8-109], for which the pIC50 is greater than 8.00. As for `CCn1oc2cc(N3CCOc4cc(C(=O)N5CCCCC5)cnc43)ccc2c1=O` [Example 8-213], the pIC50 was greater than 8.00.

Regarding `CN1Cc2cc(N3CCOc4cc(C(=O)N5CCOCC5)cnc43)ccc2C1=O` [Example 8-188], the pIC50 is greater than 8.00.

As for `COc1cc(N2CCOc3cc(C(=O)N4CCC(F)(F)CC4)ccc32)ccc1C(N)=O` [Example 5-2], the negative-log IC50 (pIC50) was greater than 8.00. Turning to `Cn1nc2cc(N3CCOc4cc(C(=O)N5CCC[C@H]5C(=O)OC(C)(C)C)cnc43)ccn2c1=O` [Example 8-227], the pIC50 was less than 7.00.

`C[C@H]1CCCCN1C(=O)c1cnc2c(c1)OCCN2c1ccc2c(c1)CN(C)C2=O` [Example 8-196]: the pIC50 is greater than 8.00. The same measure for `CCOCCn1nc2cc(N3CCCc4cc(C(=O)N5CCC[C@H](CF)C5)cnc43)ccn2c1=O` [Example 1-117]: greater than 8.00; for `CS(=O)(=O)c1ccc(N2CCOc3cc(C(=O)N4CCCCC4)cnc32)cc1` [Example 1-240]: 7.00 to 8.00; for `Cn1nc2cc(N3CCCc4cc(C(=O)N5CCC(F)(F)CC5)cnc43)ccn2c1=O` [Example 1-129]: greater than 8.00. The same measure for `CCn1nc2cc(N3CCOc4cc(C(=O)N5CCN(C)C(=O)C5)cnc43)ccn2c1=O` [Example 8-221]: less than 7.00; for `Cn1oc2cc(N3CCOc4cc(C(=O)N5CCCCC5)cnc43)ccc2c1=O` [Example 1-19]: greater than 8.00; for `Cn1cnc2cc(N3CCCc4cc(C(=O)N5CCC(F)(F)CC5)cnc43)ccc2c1=O` [Example 1-88]: greater than 8.00. As for `Cn1nc2cc(N3CCOc4cc(C(=O)N5CCOC6(CC6)C5)cnc43)ccn2c1=O` [Example 8-49], the figure is greater than 8.00; as for `CN1Cc2cc(N3CCCc4cc(C(=O)N5CCC(F)(F)CC5)cnc43)ncc2C1=O` [Example 1-85], 7.00 to 8.00; as for `CN1Cc2cc(N3CCOc4cc(SC5CCCCC5)cnc43)ccc2C1=O` [Example 1-136], 7.00 to 8.00. On to `Cn1nc2cc(N3CCOc4cc(C(=O)N5CCC[C@H]5C(=O)O)cnc43)ccn2c1=O` [Example 35-1, (4-(2-Methyl-3-oxo-2,3-dihydro-[1,2,4]triazolo[4,3-a]pyridin-7-yl)-3,4-dihydro-2H-pyrido[3,2-b][1,4]oxazine-7-carbonyl)-L-proline], for which the pIC50 is less than 7.00. Consider `CCCCn1nc2cc(N3CCOc4cc(C(=O)N5CCCCC5)cnc43)ccn2c1=O` [Example 1-216], for which the pIC50 is greater than 8.00. The same measure for `CN1Cc2cc(N3CCCc4cc(C(=O)N5CCCCC5)cnc43)ccc2C1=O` [Example 1-68]: greater than 8.00; for `CCOC(=O)c1ccc(N2CCOc3cc(C(=O)N4CCCCC4)cnc32)s1` [Example 1-264]: greater than 8.00. The same measure for `CCn1nc2cc(N3CCOc4cc(C(=O)N5CCN(C(C)=O)CC5)cnc43)ccn2c1=O` [Example 8-219]: less than 7.00; for `CCCN1Cc2cc(N3CCCc4cc(C(=O)N5CCCCC5)cnc43)ccc2C1=O` [Example 1-196]: greater than 8.00. As for `CN1Cc2cc(N3CCOc4cc(C(=O)N5CCC[C@H](C(F)F)C5)cnc43)ccc2C1=O` [Example 8-206], the pIC50 is greater than 8.00. The same measure for `Cn1nc2cc(N3CCOc4cc(C(=O)N5CC6CCC6C5)cnc43)ccn2c1=O` (centres unmarked) [Example 8-97]: greater than 8.00. In the case of `Cn1cnc2cc(N3CCOc4cc(C(=O)N5CCCCC5)cnc43)ncc2c1=O` [Example 1-39], the pIC50 was 7.00 to 8.00. As for `Cc1cn2ccc(N3CCOc4cc(C(=O)N5CCCCC5)cnc43)cc2n1` [Example 1-26], the figure is 7.00 to 8.00; as for `O=C(O)c1ccc(N2CCS(=O)(=O)c3cc(C(=O)N4CCCCC4)ccc32)cc1` [Example 2-17], 7.00 to 8.00; as for `CCN1Cc2cc(N3CCCc4cc(C(=O)N5CCN(C(C)=O)CC5)cnc43)ccc2C1=O` [Example 8-74], less than 7.00.

A word on the pIC50: it is the negative decadic logarithm of the IC50, by convention in mol/L.

These data come from patent US12577217B2, “15-PGDH inhibitor” (KYORIN Pharmaceutical Co., Ltd., priority 2019, dated 2026).
